Tests used:
[1] = target: T1, PxOR1 coexpressed with BmOR2 (Plutella xylostella, UniProt B5MEK0); test: electrophysiology, agonist-induced current in Xenopus oocytes; assay type: cell-based; settings: PxOR1 with Bombyx mori co-receptor BmOR2, applied sequentially to same oocyte, n = 10, read-out: 50% effective concentration
T1 construct: coexpressed in Xenopus oocytes; mixed-species heteromeric OR complex, PxOR1 of Plutella xylostella with BmOR2 of Bombyx mori; with Odorant receptor coreceptor (Bombyx mori)
T1 sequence (B5MEK0 1-422): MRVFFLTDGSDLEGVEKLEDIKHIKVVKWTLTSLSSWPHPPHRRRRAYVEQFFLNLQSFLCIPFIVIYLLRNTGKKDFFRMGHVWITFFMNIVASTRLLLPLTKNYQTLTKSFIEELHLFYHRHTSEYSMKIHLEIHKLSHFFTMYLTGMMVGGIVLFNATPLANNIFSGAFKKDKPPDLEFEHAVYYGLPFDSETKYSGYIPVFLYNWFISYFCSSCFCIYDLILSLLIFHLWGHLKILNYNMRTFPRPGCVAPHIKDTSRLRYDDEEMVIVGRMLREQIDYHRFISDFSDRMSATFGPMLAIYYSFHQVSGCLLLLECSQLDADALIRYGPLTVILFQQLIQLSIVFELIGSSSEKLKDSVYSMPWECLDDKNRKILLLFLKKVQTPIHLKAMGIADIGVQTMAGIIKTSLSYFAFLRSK
Excerpt: electrophysiology, agonist-induced current in Xenopus oocytes on PxOR1 coexpressed with BmOR2 | PxOR1 with PxOR83 and PxOR1 with BmOR2, respectively

[2] = target: T2, PxOR1 coexpressed with PxOR83 (Plutella xylostella, UniProt B5MEK0); test: as above; assay type: cell-based; settings: read-out: 50% effective concentration
T2 construct: coexpressed in Xenopus oocytes; heteromeric OR complex; with Odorant receptor coreceptor
T2 sequence (B5MEK0 1-422): T1 sequence (B5MEK0 1-422)
T2 sequence (D0EZE1 1-471 partner): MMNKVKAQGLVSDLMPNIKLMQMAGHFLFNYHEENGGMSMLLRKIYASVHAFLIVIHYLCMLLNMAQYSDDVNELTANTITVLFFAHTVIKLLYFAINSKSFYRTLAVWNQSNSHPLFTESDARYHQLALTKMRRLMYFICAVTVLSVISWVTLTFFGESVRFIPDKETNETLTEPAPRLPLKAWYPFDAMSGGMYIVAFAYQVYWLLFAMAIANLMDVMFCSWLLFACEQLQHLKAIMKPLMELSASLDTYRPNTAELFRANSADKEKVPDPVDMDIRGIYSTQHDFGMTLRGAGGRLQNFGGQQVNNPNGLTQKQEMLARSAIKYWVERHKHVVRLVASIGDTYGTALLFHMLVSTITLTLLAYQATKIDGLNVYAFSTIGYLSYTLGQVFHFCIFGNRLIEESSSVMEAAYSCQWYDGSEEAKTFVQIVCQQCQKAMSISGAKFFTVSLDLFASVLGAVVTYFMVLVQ

## CCCC/C=C\CCCCCCCCCC=O [Z11-16:Ald, (Z)-11-hexadecenal]
[1]
  EC50: 1.2 µM
[2]
  EC50: 0.42 µM
